According to patent publication US20090149458A1, “PYRROLO[3,2-d]PYRIMIDINE COMPOUNDS AND THEIR USE AS PI3 KINASE AND mTOR KINASE INHIBITORS” (Wyeth, priority 2007, published 2009):

Assays:
Assay type in all cases: biochemical
[1] = molecular target: PI3 Kinase α (Homo sapiens, UniProt P42336); assay: PI3K fluorescence polarization assay (PI3 Kinase α); conditions: 20 uM PIP2, 25 uM ATP;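 also: enzyme reaction with inhibitor or DMSO control, 30–60 min at room temperature, stopped by EDTA, then TAMRA detector with GST-GRP fluorescence polarization read after 90–110 min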
[2] = molecular target: T1, human TOR (Homo sapiens, UniProt P42345); assay: human TOR kinase assay with purified enzyme, DELFIA format; conditions: FLAG-TOR, 100 μM ATP, His6-S6K substrate;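 also: 2 h kinase reaction at room temperature, phosphorylation of S6K at T389 detected with a europium-labelled antibody after plate capture, DMSO vehicle as control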
T1 construct: FLAG

[3] = molecular target: PI3 Kinase γ (Homo sapiens, UniProt P48736); assay: PI3K fluorescence polarization assay (PI3 Kinase γ); conditions: 20 uM PIP2, 25 uM ATP
Procedure: Buffers: Reaction Buffer: 20 mM HEPES pH7.5, 2 mM MgCl2, 0.05% CHAPS, and 0.01% bME (added fresh); STOP/detection Buffer: 100 mM HEPES pH7.5, 4 mM EDTA, 0.05% CHAPS. STOCKS: ATP 20 mM in H2O; PIP2 (diC8, Echelon cat# P-4508) 1 mM in H2O MW=856.5; GST-murine GRP 1.5 mg/ml in 17% glycerol; Red detector probe-Echelon (TAMRA) 2.5 uM. Plate: Nunc 384 well black polypropylene fluor. Plate.
Assay: The assay is run by putting 9.5 ul of freshly diluted enzyme (in “reaction buffer”) per well, then 0.5 ul of diluted drug or DMSO mixing. Then 10 ul of substrate is added to start the reaction. The mixture is incubated 30-60 minutes, room temp, then stopped with 20 ul of stop/detector mix. The substrate solution, is 40 μM PIP2 and 50 uM ATP in reaction buffer. Addition of 10 ul of substrate to each well starts the reaction. This is 20 uM PIP2, 25 uM ATP final in reaction.
Stop/detector mix: 10 nM TAMRA detector, 40 nM GST-GRP in STOP/detection buffer. To stop reaction: add 20 ul Stop/detector mix per well and mix well. Wait 90-110 minutes before reading plate. Plates are read on Perkin-Elmer Envision plate readers with filters for Tamra. Keep Red probe solutions dark. This procedure is adapted from Echelon Biosciences Inc procedure for their PI3-Kinase fluorescence polarization activity Assay kit Product number K-1100.

PI3 Kinase γ, sequence (P48736 whole entry): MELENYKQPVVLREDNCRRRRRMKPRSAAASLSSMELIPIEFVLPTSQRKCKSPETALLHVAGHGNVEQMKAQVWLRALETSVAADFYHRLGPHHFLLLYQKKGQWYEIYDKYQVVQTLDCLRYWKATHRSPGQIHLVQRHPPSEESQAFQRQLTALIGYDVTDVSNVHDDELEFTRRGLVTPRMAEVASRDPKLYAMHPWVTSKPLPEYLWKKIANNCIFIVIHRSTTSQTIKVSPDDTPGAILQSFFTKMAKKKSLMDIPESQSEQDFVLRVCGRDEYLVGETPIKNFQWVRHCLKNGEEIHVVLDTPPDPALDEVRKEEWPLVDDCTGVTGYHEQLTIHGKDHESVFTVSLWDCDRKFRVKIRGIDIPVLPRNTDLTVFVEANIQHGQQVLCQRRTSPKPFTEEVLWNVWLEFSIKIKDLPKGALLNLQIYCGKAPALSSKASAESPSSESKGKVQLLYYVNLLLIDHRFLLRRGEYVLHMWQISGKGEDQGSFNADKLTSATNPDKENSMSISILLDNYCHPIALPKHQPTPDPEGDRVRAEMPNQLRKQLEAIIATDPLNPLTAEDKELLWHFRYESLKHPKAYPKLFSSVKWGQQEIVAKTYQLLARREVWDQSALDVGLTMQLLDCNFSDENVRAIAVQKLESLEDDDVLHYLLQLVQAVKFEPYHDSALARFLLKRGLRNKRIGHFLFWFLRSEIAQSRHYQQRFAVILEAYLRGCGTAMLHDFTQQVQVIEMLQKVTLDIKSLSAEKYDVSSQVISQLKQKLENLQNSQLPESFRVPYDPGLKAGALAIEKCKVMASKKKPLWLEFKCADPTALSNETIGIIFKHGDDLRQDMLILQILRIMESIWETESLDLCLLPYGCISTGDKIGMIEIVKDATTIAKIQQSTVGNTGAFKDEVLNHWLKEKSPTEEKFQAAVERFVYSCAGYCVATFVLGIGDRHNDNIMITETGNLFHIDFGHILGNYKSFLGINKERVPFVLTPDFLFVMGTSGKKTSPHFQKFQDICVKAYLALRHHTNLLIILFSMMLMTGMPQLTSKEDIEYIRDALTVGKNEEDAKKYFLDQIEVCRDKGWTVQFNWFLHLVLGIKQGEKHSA
PI3 Kinase α, sequence (P42336 whole entry): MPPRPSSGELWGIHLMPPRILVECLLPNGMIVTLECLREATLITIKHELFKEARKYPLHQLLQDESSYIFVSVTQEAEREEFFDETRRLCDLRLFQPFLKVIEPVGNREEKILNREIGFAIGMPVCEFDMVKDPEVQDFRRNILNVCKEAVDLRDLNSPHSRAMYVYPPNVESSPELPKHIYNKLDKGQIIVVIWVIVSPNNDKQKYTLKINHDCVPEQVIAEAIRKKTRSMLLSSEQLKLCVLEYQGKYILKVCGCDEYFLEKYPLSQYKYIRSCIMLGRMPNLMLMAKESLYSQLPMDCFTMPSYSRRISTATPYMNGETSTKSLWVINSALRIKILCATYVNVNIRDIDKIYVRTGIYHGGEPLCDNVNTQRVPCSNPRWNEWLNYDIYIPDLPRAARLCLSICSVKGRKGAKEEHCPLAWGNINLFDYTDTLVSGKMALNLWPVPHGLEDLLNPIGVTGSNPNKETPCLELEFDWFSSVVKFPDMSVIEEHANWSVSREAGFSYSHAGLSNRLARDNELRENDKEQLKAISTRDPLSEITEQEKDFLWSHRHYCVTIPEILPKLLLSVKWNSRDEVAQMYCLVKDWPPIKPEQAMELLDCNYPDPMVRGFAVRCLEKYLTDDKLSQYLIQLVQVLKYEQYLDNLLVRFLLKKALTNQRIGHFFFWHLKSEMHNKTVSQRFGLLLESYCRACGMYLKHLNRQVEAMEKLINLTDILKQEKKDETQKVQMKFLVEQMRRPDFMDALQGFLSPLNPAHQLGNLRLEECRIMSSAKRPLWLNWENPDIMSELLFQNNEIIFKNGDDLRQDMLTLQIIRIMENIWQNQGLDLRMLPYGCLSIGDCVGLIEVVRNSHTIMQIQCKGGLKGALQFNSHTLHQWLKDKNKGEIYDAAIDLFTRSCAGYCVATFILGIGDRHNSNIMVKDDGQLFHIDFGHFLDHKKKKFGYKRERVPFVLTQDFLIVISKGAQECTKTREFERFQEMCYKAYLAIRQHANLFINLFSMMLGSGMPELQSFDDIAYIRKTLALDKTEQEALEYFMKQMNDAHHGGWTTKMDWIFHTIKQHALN
PI3 Kinase α, sequence (P27986 whole entry partner): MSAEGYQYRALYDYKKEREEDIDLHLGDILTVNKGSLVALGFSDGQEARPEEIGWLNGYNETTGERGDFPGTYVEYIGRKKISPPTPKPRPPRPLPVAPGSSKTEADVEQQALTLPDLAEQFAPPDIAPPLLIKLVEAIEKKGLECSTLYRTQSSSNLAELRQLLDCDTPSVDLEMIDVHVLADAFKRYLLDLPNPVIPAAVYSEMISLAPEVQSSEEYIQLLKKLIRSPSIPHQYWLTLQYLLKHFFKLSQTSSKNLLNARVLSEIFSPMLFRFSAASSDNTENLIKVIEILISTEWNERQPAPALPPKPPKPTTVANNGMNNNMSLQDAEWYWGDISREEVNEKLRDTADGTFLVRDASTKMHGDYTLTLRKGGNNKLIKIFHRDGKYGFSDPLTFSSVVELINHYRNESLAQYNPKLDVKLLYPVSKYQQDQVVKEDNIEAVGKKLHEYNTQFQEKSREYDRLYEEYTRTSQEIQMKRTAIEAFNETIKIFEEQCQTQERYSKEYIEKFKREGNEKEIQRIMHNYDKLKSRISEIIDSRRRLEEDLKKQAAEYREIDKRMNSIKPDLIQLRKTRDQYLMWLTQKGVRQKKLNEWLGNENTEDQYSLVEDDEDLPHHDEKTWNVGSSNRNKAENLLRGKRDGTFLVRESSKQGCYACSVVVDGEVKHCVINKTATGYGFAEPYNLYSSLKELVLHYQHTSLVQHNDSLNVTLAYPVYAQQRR

SMILES | IC50 [1] | IC50 [2] | IC50 [3]
O=C(NCCCO)Nc1cccc(-c2nc(N3CCOCC3)c3[nH]ccc3n2)c1 [Example 41, 1-(3-hydroxypropyl)-3-[3-(4-morpholin-4-yl-5H-pyrrolo[3,2-d]pyrimidin-2-yl)phenyl]urea] | 6220 nM | > 4000 nM | > 10000 nM
OCc1cccc(-c2nc(N3CCOCC3)c3[nH]ccc3n2)c1 [Example 3, [3-(4-morpholin-4-yl-5H-pyrrolo[3,2-d]pyrimidin-2-yl)phenyl]methanol] | – | – | 918 nM
CN1CCC(c2c[nH]c3c(N4CCOCC4)nc(-c4cccc(O)c4)nc23)CC1 [Example 30, 3-[7-(1-methylpiperidin-4-yl)-4-morpholin-4-yl-5H-pyrrolo[3,2-d]pyrimidin-2-yl]phenol] | 484 nM | 3750 nM | 828 nM
Oc1cccc(-c2nc(N3CCOCC3)c3[nH]cc(C4CCN(Cc5ccc(F)cc5Cl)CC4)c3n2)c1 [Example 34, 3-{7-[1-(2-chloro-4-fluorobenzyl)piperidin-4-yl]-4-morpholin-4-yl-5H-pyrrolo[3,2-d]pyrimidin-2-yl}phenol] | 120 nM | 460 nM | 1370 nM
Oc1cccc(-c2nc(N3CCOCC3)c3[nH]cc(C4CCN(Cc5ccc(Cl)nc5)CC4)c3n2)c1 [Example 35, 3-(7-{1-[(6-chloropyridin-3-yl)methyl]piperidin-4-yl}-4-morpholin-4-yl-5H-pyrrolo[3,2-d]pyrimidin-2-yl)phenol] | – | 735 nM | –
Oc1cccc(-c2nc(N3CCOCC3)c3[nH]cc(C4CCN(Cc5ccc(F)nc5)CC4)c3n2)c1 [Example 39, 3-(7-{1-[(6-fluoropyridin-3-yl)methyl]piperidin-4-yl}-4-morpholin-4-yl-5H-pyrrolo[3,2-d]pyrimidin-2-yl)phenol] | 69 nM | 1260 nM | 132 nM
O=C(NCCCn1ccnc1)Nc1cccc(-c2nc(N3CCOCC3)c3[nH]ccc3n2)c1 [Example 42, 1-[3-(1H-imidazol-1-yl)propyl]-3-[3-(4-morpholin-4-yl-5H-pyrrolo[3,2-d]pyrimidin-2-yl)phenyl]urea] | 8940 nM | > 4000 nM | > 10000 nM
OCc1cccc(-c2nc(N3CCOCC3)c3[nH]cc(CN4CCCC4)c3n2)c1 [Example 7, {3-[4-morpholin-4-yl-7-(pyrrolidin-1-ylmethyl)-5H-pyrrolo[3,2-d]pyrimidin-2-yl]phenyl}methanol] | – | – | 1120 nM
c1ccc(COc2cccc(-c3nc(N4CCOCC4)c4[nH]ccc4n3)c2)cc1 [Example 1, 2-[3-(benzyloxy)phenyl]-4-morpholin-4-yl-5H-pyrrolo[3,2-d]pyrimidine] | 950 nM | > 4000 nM | 443 nM
OCc1cccc(-c2nc(N3CCOCC3)c3[nH]cc(CNCc4cccnc4)c3n2)c1 [Example 9, [3-(4-morpholin-4-yl-7-{[(pyridin-3-ylmethyl)amino]methyl}-5H-pyrrolo[3,2-d]pyrimidin-2-yl)phenyl]methanol] | 74 nM | 5500 nM | 2870 nM
Cc1cccc(-c2nc(N3CCOCC3)c3[nH]ccc3n2)c1 [Example 4, 2-(3-methylphenyl)-4-morpholin-4-yl-5H-pyrrolo[3,2-d]pyrimidine] | – | 5000 nM | > 8700 nM
Oc1cccc(-c2nc(N3CCOCC3)c3[nH]cc(C4CCN(Cc5ccco5)CC4)c3n2)c1 [Example 27, 3-{7-[1-(2-furylmethyl)piperidin-4-yl]-4-morpholin-4-yl-5H-pyrrolo[3,2-d]pyrimidin-2-yl}phenol] | 297 nM | 2750 nM | 1610 nM
CN(C)Cc1c[nH]c2c(N3CCOCC3)nc(-c3cccc(CO)c3)nc12 [Example 12] | – | – | 561 nM
CN1CCN(Cc2c[nH]c3c(N4CCOCC4)nc(-c4cccc(CO)c4)nc23)CC1 [Example 10] | 62 nM | 7850 nM | 2020 nM
O=C(NCc1ccco1)Nc1cccc(-c2nc(N3CCOCC3)c3[nH]ccc3n2)c1 [Example 43, 1-(2-furylmethyl)-3-[3-(4-morpholin-4-yl-5H-pyrrolo[3,2-d]pyrimidin-2-yl)phenyl]urea] | > 10000 nM | > 4000 nM | > 10000 nM
COC(=O)Cn1ccc2nc(-c3cccc(CO)c3)nc(N3CCOCC3)c21 [Example 46, Methyl {2-[3-(hydroxymethyl)phenyl]-4-morpholin-4-yl-5H-pyrrolo[3,2-d]pyrimidin-5-yl}acetate] | 2400 nM | > 4000 nM | 2680 nM

SMILES | IC50 [1] | IC50 [2] | IC50 [3]
Oc1cccc(-c2nc(N3CCOCC3)c3[nH]cc(C4CCN(Cc5ccccn5)CC4)c3n2)c1 [Example 38, 3-{4-morpholin-4-yl-7-[1-(pyridin-2-ylmethyl)piperidin-4-yl]-5H-pyrrolo[3,2-d]pyrimidin-2-yl}phenol] | 140 nM | 605 nM | 611 nM
Cn1ccc2nc(-c3cccc(CO)c3)nc(N3CCOCC3)c21 [Example 45, [3-(5-methyl-4-morpholin-4-yl-5H-pyrrolo[3,2-d]pyrimidin-2-yl)phenyl]methanol] | – | > 4000 nM | 8110 nM
Oc1cccc(-c2nc(N3CCOCC3)c3[nH]cc(C4CCN(C5CCCCC5)CC4)c3n2)c1 [Example 31, 3-[7-(1-cyclohexylpiperidin-4-yl)-4-morpholin-4-yl-5H-pyrrolo[3,2-d]pyrimidin-2-yl]phenol] | 250 nM | 370 nM | 2490 nM
Oc1cccc(-c2nc(N3CCOCC3)c3[nH]ccc3n2)c1 [Example 2, 3-(4-morpholin-4-yl-5H-pyrrolo[3,2-d]pyrimidin-2-yl)phenol] | – | – | 164 nM
Oc1cccc(-c2nc(N3CCOCC3)c3[nH]cc(CN4CCCC4)c3n2)c1 [Example 17, 3-[4-morpholin-4-yl-7-(pyrrolidin-1-ylmethyl)-5H-pyrrolo[3,2-d]pyrimidin-2-yl]phenol] | 105 nM | 3250 nM | 1560 nM
OCc1cccc(-c2nc(N3CCOCC3)c3[nH]cc(CN4CCNCC4)c3n2)c1 [Example 11, {3-[4-morpholin-4-yl-7-(piperazin-1-ylmethyl)-5H-pyrrolo[3,2-d]pyrimidin-2-yl]phenyl}methanol] | 30 nM | 4300 nM | 510 nM
Cn1cc(CN2CCCC2)c2nc(-c3cccc(CO)c3)nc(N3CCOCC3)c21 [Example 47, {3-[5-methyl-4-morpholin-4-yl-7-(pyrrolidin-1-ylmethyl)-5H-pyrrolo[3,2-d]pyrimidin-2-yl]phenyl}methanol] | – | > 4000 nM | > 10000 nM
C1=C(c2c[nH]c3c(N4CCOCC4)nc(-c4cccc(OCc5ccccc5)c4)nc23)CCNC1 [Example 21, 2-[3-(benzyloxy)phenyl]-4-morpholin-4-yl-7-(1,2,3,6-tetrahydropyridin-4-yl)-5H-pyrrolo[3,2-d]pyrimidine] | > 10000 nM | 7000 nM | > 10000 nM
CCN(CC)Cc1c[nH]c2c(N3CCOCC3)nc(-c3cccc(O)c3)nc12 [Example 19, 3-{7-[(diethylamino)methyl]-4-morpholin-4-yl-5H-pyrrolo[3,2-d]pyrimidin-2-yl}phenol] | 132 nM | 3100 nM | 1820 nM
Oc1cccc(-c2nc(N3CCOCC3)c3[nH]cc(C4CCNCC4)c3n2)c1 [Example 22, 3-(4-morpholin-4-yl-7-piperidin-4-yl-5H-pyrrolo[3,2-d]pyrimidin-2-yl)phenol] | – | – | 1070 nM
Oc1cccc(-c2nc(N3CCOCC3)c3[nH]cc(CNCc4cccnc4)c3n2)c1 [Example 16, 3-(4-morpholin-4-yl-7-{[(pyridin-3-ylmethyl)amino]methyl}-5H-pyrrolo[3,2-d]pyrimidin-2-yl)phenol] | 180 nM | > 4000 nM | 3030 nM
Oc1cccc(-c2nc(N3CCOCC3)c3[nH]cc(C4CCN(Cc5ccccc5)CC4)c3n2)c1 [Example 26, 3-[7-(1-benzylpiperidin-4-yl)-4-morpholin-4-yl-5H-pyrrolo[3,2-d]pyrimidin-2-yl]phenol] | – | – | 890 nM
OCc1cccc(-c2nc(N3CCOCC3)c3[nH]cc(CN4CCN(Cc5ccccc5)CC4)c3n2)c1 [Example 15] | 240 nM | 5800 nM | 2390 nM
OCc1cccc(-c2nc(N3CCOCC3)c3[nH]cc(CNCCN4CCCCC4)c3n2)c1 [Example 8, [3-(4-morpholin-4-yl-7-{[(2-piperidin-1-ylethyl)amino]methyl}-5H-pyrrolo[3,2-d]pyrimidin-2-yl)phenyl]methanol] | 72 nM | 11100 nM | 4280 nM
Nc1cccc(-c2nc(N3CCOCC3)c3[nH]ccc3n2)c1 [Example 5, 3-(4-morpholin-4-yl-5H-pyrrolo[3,2-d]pyrimidin-2-yl)aniline] | – | 430 nM | 8000 nM
Oc1cccc(-c2nc(N3CCOCC3)c3[nH]cc(C4CCN(Cc5ccc(F)cc5)CC4)c3n2)c1 [Example 23, 3-{7-[1-(4-fluorobenzyl)piperidin-4-yl]-4-morpholin-4-yl-5H-pyrrolo[3,2-d]pyrimidin-2-yl}phenol] | – | – | 1070 nM
